Read-outs that look alike come from different tables or passages of the source. Values belong to the compound of their own block, whether it stands above or below them.
Tests used:
LacAnc98 [1] = experiment: spectrophotometric steady-state kinetics, […] nm; type: biochemical, synthetic construct; settings: room temperature; 100 mM sodium phosphate/citrate pH 5.0; air O2 as co-substrate
OB-1 [2] = molecular target: T1, OB-1 (basidiomycete PM1, UniProt Q12571, V183A/H229Y/S245G/A260P/D302E/S447N/A482T, form not given); experiment: spectrophotometric steady-state kinetics, […] nm; type: biochemical; settings: room temperature; 100 mM sodium phosphate/citrate pH 5.0; air O2 as co-substrate
T1 construct: N-terminal extension from leader processing (EAEA site) possible
T1 sequence (Q12571 entry or part of it V183A/H229Y/S245G/A260P/D302E/S447N/A482T, form open): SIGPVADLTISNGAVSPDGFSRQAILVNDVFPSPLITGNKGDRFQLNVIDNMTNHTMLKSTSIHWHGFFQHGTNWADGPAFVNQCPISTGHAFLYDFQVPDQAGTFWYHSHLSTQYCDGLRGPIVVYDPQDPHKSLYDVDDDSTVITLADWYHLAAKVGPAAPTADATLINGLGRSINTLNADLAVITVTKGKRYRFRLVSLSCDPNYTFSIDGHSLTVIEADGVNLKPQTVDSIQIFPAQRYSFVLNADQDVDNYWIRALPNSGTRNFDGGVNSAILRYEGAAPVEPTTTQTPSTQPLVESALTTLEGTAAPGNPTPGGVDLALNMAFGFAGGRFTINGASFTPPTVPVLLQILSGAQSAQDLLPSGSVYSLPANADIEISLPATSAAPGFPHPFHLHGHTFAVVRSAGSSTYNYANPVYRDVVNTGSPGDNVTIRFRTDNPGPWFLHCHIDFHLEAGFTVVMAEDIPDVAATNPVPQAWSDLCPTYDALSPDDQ

LacAnc100 [3] = experiment: spectrophotometric steady-state kinetics, […] nm; type: biochemical, synthetic construct; settings: room temperature; 100 mM sodium phosphate/citrate pH 5.0; air O2 as co-substrate
LacAnc98 [4] = experiment: spectrophotometric steady-state kinetics, […] nm; type: biochemical, synthetic construct; settings: room temperature; 100 mM sodium phosphate/citrate pH 5.0; air O2 as co-substrate; remark: listed apart in the source
LacAnc100 [5] = experiment: spectrophotometric steady-state kinetics, […] nm; type: biochemical, synthetic construct; settings: room temperature; 100 mM sodium phosphate/citrate pH 5.0; air O2 as co-substrate; remark: listed apart in the source
OB-1 [6] = molecular target: T1, OB-1; experiment: spectrophotometric steady-state kinetics, […] nm; type: biochemical; settings: room temperature; 100 mM sodium phosphate/citrate pH 5.0; air O2 as co-substrate; remark: listed apart in the source
LacAnc98 [7] = experiment: spectrophotometric steady-state kinetics, […] nm; type: biochemical, synthetic construct; settings: room temperature; 100 mM sodium phosphate/citrate pH 5.0; air O2 as co-substrate; remark: listed apart in the source
LacAnc100 [8] = experiment: spectrophotometric steady-state kinetics, […] nm; type: biochemical, synthetic construct; settings: room temperature; 100 mM sodium phosphate/citrate pH 5.0; air O2 as co-substrate; remark: listed apart in the source
OB-1 [9] = molecular target: T1, OB-1; experiment: spectrophotometric steady-state kinetics, […] nm; type: biochemical; settings: room temperature; 100 mM sodium phosphate/citrate pH 5.0; air O2 as co-substrate; remark: listed apart in the source
LacAnc100 [10] = settings: read-out: LacAnc100; room temperature; 100 mM sodium phosphate/citrate pH 4.0; air O2 as co-substrate
LacAnc98 [11] = settings: read-out: LacAnc98; room temperature; 100 mM sodium phosphate/citrate pH 4.0; air O2 as co-substrate

Km (LacAnc98 [1]): 230 ± 40 µM
Km (OB-1 [2]): 320 ± 20 µM
Km (LacAnc100 [3]): 330 ± 70 µM
SMILES: COc1cc(/C=C/C(=O)O)cc(OC)c1O [Sinapic acid]

Km (LacAnc98 [4]): 420 ± 20 µM
Km (LacAnc100 [5]): 500 ± 20 µM
Km (OB-1 [6]): 150 ± 10 µM
SMILES: COc1cccc(OC)c1O [DMP]

Km (LacAnc98 [7]): 8700 ± 300 µM
Km (LacAnc100 [8]): 6700 ± 700 µM
Km (OB-1 [9]): 2600 ± 400 µM
SMILES: COc1ccccc1O [Guaiacol]

Km (LacAnc100 [10]): 60 ± 1 µM
Km (LacAnc98 [11]): 69 ± 2 µM
SMILES: CCn1c(=NN=c2sc3cc(S(=O)(=O)O)ccc3n2CC)sc2cc(S(=O)(=O)O)ccc21 [ABTS]
